Values of other authors, collected in patent publication US12343373B2, “Glycopeptide antibiotics liquid formulations and methods and uses thereof” (SOMERSET THERAPEUTICS, LLC, priority 2020, dated 2025).
Read-outs that look alike come from different tables or passages of the source.

What was measured:
[1] = oral dosing

## CC(=O)N[C@H](C)C(=O)O [N-acetyl D-alanine (NADA), N-acetyl-D-alanine]
Animal reproduction studies, product label black box warning
  embryo-fetal toxicity: caused fetal malformations

## CSCC[C@@H](NC(C)=O)C(=O)O [NADM, N-acetyl-D-methionine]
[1]
  hydrolysis to methionine: only minimally hydrolyzed to D- and L-methionine

## CSCC[C@H](NC(C)=O)C(=O)O [NALM, N-acetyl-L-methionine]
[1]
  hydrolysis to methionine: completely hydrolyzed to L-methionine and acetic acid

## polyethylene glycol 400 [polyethylene glycol (PEG 400)]
In vivo
  embryo-fetal toxicity: caused fetal malformations
